Experimental data: patent publication US20210023065A1, “AMPHIPHILIC THIOL COMPOUNDS AND USES THEREOF” (THE REGENTS OF THE UNIVERSITY OF CALIFORNIA, priority 2018, published 2021)

Assays:
Format in all cases: cell-based
endogenous HRas = target: T1, endogenous HRas (Homo sapiens, UniProt P01112); experiment: Acyl resin-assisted capture detection of HRas palmitoylation in HeLa cells; settings: HeLa cells
T1 construct: endogenous in cells; host or cells: HeLa
Procedure: HeLa cells were grown to confluency in 10 cm plates. Stock solutions of compounds were prepared in DMSO as before and diluted to the final indicated concentration in 5.5 mL of OptiMEM media before adding to cells. Cells were incubated at 37° C. for 20 min and then media removed and 3 mL of HBSS added to each plate. Cells were detached using a cell scraper, pelleted by centrifugation at 1,000 rcf for 5 min and the pellet processed using a CAPTUREome S-Palmitoylated Protein Kit (Badrilla, UK) according to the manufacturer's protocol. Samples were resolved by electrophoresis using 4-20% SDS-polyacrylamide gels (Bio-Rad) under denaturing and reducing conditions. Proteins were then electrotransferred to a PVDF membrane (Bio-Rad). The membrane was blocked with 3% BSA and then subjected to immunoblot analysis using Anti-GTPase HRAS antibody (ab97488) (Abcam), Calnexin Antibody (2433S) (Cell Signaling Technology), Gα(i) Antibody (5290S) (Cell Signaling Technology), SNAP25 Antibody (5308S) (Cell Signaling Technology), Flotillin-2 Antibody (3436S) (Cell Signaling Technology), CD44 Antibody (3570S) (Cell Signaling Technology), Lyric/Metadherin Antibody (14065S) (Cell Signaling Technology), Flotillin-1 Antibody (3253S) (Cell Signaling Technology) and secondary goat anti-rabbit IgG-HRP (sc-2030) (Santa Cruz Biotechnology) or goat anti-mouse IgG HRP (ThermoFisher). Chemiluminescent detection was performed by using SuperSignal West Pico PLUS chemiluminescent substrate (ThermoFisher) according to the manufacturer's instructions.
Assays were performed in 3 biological replicates. Each replicate involved the analysis of 4 to 5 conditions side-by-side. Western blots were analyzed using ImageJ^1. The intensity of the protein band in each cleaved bound fraction (palmitoylated protein fraction) was normalized to the intensity of the corresponding input fraction (total protein fraction). The values within individual S 4 replicates were normalized to the control or vehicle condition and reported as means±SD. An unpaired t test was performed to determine the significance between means.

calnexin = target: T2, calnexin (Homo sapiens, UniProt P27824); experiment: Acyl resin-assisted capture detection of calnexin palmitoylation in HeLa cells; settings: 1.25 μmol/10^7 cells, relative to vehicle
T2 construct: we detected the palmitoylation levels of eight known palmitoylated proteins after treatment with 1; endogenous in cells; host or cells: HeLa
T2 sequence (P27824 21-592): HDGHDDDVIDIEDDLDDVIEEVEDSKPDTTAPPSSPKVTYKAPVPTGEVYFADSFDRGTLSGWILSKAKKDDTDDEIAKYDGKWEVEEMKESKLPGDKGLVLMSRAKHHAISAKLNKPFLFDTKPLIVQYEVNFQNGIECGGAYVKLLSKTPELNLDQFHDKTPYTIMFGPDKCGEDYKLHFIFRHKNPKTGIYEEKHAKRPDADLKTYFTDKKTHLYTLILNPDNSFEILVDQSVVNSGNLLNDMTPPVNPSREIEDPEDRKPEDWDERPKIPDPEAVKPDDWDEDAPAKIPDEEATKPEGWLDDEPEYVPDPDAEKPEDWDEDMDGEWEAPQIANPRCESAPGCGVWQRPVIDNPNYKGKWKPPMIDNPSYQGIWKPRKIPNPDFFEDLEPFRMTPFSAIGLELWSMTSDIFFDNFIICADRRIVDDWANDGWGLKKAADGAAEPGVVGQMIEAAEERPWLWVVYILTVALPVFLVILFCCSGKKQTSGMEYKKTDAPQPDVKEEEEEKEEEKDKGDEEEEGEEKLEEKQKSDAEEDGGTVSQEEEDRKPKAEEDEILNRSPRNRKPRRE
Procedure: (§1) HeLa cells were grown to confluency in 10 cm plates. Stock solutions of compounds were prepared in DMSO as before and diluted to the final indicated concentration in 5.5 mL of OptiMEM media before adding to cells. Cells were incubated at 37° C. for 20 min and then media removed and 3 mL of HBSS added to each plate. Cells were detached using a cell scraper, pelleted by centrifugation at 1,000 rcf for 5 min and the pellet processed using a CAPTUREome S-Palmitoylated Protein Kit (Badrilla, UK) according to the manufacturer's protocol. Samples were resolved by electrophoresis using 4-20% SDS-polyacrylamide gels (Bio-Rad) under denaturing and reducing conditions. Proteins were then electrotransferred to a PVDF membrane (Bio-Rad). […]
(§2) Assays were performed in 3 biological replicates. […] Western blots were analyzed using ImageJ^1. […]

HeLa cells = experiment: MS detection of AMD product 4 in HeLa cell lipid extracts; settings: 200 μM 1 with 400 μM TCEP, 20 min
Procedure: HeLa cells were grown to confluency in two 6 cm plates. Once confluent, media was removed and cells washed 1× with HBSS. Stock solutions were prepared as before. From these stocks, solutions of 200 μM 1 (with 400 μM TCEP) or 400 μM TCEP were prepared in OptiMEM media. To each plate was added 3 mL OptiMEM+400 μM TCEP or OptiMEM+200 μM 1 (with 400 μM TCEP). Cells were incubated at 37° C. for 20 min and then media removed and 3 mL of HBSS added to each plate. Cells were detached using a cell scraper, pelleted by centrifugation at 1,000 rcf for 5 min and the pellet subjected to a lipid extraction using the Bligh and Dyer method.^3 Lipid extracts were analyzed for the presence of the AMD product palmityl-N-L-Cys-Oct (4) using reverse phase chromatography on an HP 1100 LC station to a Thermo LCQdeca-MS running in ESI Positive Ion Mode. MS/MS analysis was performed on the [M+H]^+ peak of 4 (m/z 471) then selected reaction monitoring on the fragmentation peak (m/z 130) (FIG. 9).

Gα(i) = experiment: Acyl resin-assisted capture detection of Gα(i) palmitoylation in HeLa cells; settings: 1.25 μmol/10^7 cells, relative to vehicle
Procedure: as §1, §2

CD44 = target: T3, CD44 (Homo sapiens, UniProt P16070); experiment: Acyl resin-assisted capture detection of CD44 palmitoylation in HeLa cells; settings: 1.25 μmol/10^7 cells, relative to vehicle
T3 construct: we detected the palmitoylation levels of eight known palmitoylated proteins after treatment with 1; endogenous in cells; host or cells: HeLa
T3 sequence (P16070 21-742): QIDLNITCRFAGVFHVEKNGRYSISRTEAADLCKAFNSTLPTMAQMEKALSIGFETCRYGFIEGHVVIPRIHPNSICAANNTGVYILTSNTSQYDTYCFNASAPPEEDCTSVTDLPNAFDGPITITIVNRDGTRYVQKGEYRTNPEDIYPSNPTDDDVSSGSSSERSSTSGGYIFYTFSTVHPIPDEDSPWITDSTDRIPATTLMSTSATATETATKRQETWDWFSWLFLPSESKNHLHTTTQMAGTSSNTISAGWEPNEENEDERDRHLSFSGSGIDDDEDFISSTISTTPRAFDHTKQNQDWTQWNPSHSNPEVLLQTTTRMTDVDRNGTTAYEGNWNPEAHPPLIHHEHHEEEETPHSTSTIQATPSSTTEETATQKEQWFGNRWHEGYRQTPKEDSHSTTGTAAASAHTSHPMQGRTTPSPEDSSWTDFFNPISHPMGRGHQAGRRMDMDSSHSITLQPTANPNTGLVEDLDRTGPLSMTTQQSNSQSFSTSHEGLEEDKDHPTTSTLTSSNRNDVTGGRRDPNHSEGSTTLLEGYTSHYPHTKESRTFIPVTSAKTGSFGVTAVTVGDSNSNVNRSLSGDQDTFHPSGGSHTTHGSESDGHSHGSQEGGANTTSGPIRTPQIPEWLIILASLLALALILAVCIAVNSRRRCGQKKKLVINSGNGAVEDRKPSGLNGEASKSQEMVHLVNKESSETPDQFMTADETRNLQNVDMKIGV
Procedure: as §1, §2

EGFP-KRas4b = experiment: Live-cell imaging of EGFP-KRas4b localization in HeLa cells; settings: 1.25 μmol/10^7 cells
Procedure: Imaging was performed on an Axio Observer Z1 inverted microscope (Carl Zeiss Microscopy Gmb, Germany) with Yokogawa CSU-X1 spinning disk confocal unit using a 63×, 1.4 NA oil immersion or 20×, 0.8 NA objective to an ORCA-Flash4.0 V2 Digital CMOS camera (Hamamatsu, Japan). For live cell imaging, an incubation chamber with temperature and CO2 controllers (World Precision Instruments) was utilized. Fluorophores were excited with s diode laser (488 nm; 30 mW). Images were acquired using Zen Blue software (Carl Zeiss) and processed using Image J.^1 HeLa cells were plated at 40,000 cells/well in an 8-well Lab-Tek chamber slide (ThermoFisher) and allowed to adhere overnight. Cells were transfected with mEGFP-HRas or mEGFP-KRas4b using Lipofectamine 2000 (ThermoFisher) according to the manufacturer's protocol. 50 mM stocks of compounds 1 and 2 were prepared by dissolving the solid compound in DMSO containing 100 mM tris(2-S 3 carboxyethyl)phosphine hydrochloride (TCEP) as a preservative. From these stocks, a solution of 200 μM [1 or 2] (with 400 μM TCEP), or 400 μM TCEP was prepared in OptiMEM media. Before imaging, cells were exchanged into OptiMEM media. The diluted solutions were added to the indicated final concentration within individual wells of the chamber slide and cells imaged while maintaining 37° C., 5% CO2 in the incubation chamber. […]

T1 sequence (P01112 whole entry): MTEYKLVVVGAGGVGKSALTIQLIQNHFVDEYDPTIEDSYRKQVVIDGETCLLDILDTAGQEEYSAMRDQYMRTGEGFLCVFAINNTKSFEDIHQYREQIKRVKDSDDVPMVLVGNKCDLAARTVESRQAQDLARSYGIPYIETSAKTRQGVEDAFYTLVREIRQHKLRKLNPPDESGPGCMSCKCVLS

Structure (SMILES): CCCCCCCCNC(=O)[C@@H](N)CS [compound 1, H2N-L-Cys-Oct]
- reduction of palmitoylation level of HRas (endogenous HRas; 1.25 μmol/10^7 cells, relative to vehicle): > 80%
- depalmitoylation of HRas in the presence of palmostatin B (PB) (endogenous HRas; 1.25 μmol/10^7 cells, with APT-1/2 inhibitor PB): efficiently depalmitoylated HRas
- HRas palmitoylation over a range of concentrations (endogenous HRas; 0.31-1.25 μmol/10^7 cells, 20 min): decreased in a dose-dependent manner
- depalmitoylation of HRas (endogenous HRas; 20 min, 1 at 1.25 μmol/10^7 cells, same experiments with TCEP alone or compound 2): near complete depalmitoylation
- reduction of palmitoylation level of calnexin (calnexin): 19-40%
- detection of N-acylated AMD product 4 in lipid extract (LC MS/MS) (HeLa cells): detected the expected AMD product, 4
- reduction of palmitoylation level of Gα(i) (Gα(i)): > 80%
- reduction of palmitoylation level of CD44 (CD44): > 80%
- EGFP-KRas4b protein localization (fluorescence) (EGFP-KRas4b): no change in protein localization
